Measurements as given in patent US20110230504A1, “ALLEVIATING DISORDERS WITH COMBINING AGENTS THAT INCREASE EPOXYGENATED FATTY ACIDS AND AGENTS THAT INCREASE cAMP” (The Regents Of The University Of California Office Of …, priority 2008, published 2011).
Entries after “also recorded” stand apart in the source; their conditions may differ.

How the values were obtained:
StARD1 mRNA [1] = assay: StARD1 mRNA 30 min after intraspinal 8-Br cAMP, EETs, AEPU in non-inflamed rats; format: in vivo, rat; details: 8-Br cAMP 100 μg, EETs 5 μg, AEPU 1 μg
Experimental: To investigate the cooperation between cAMP and EETs in the spinal cord, a membrane permeable cAMP analogue, 8-Br cAMP (100 μg), was administered into the spinal cord by lumbar puncture (between L4-L5) and rapid (30 min.) expression of StARD1 mRNA in the spinal cord and the brain was quantified by qRT-PCR. In these experiments animals were maintained under deep anesthesia.

rats [2] = assay: Thermal hindpaw withdrawal latency (Hargreaves), non-inflammatory model; format: in vivo, rat
Experimental: (§1) Behavioral nociceptive testing was conducted by assessing thermal hindpaw withdrawal latencies (TWL) using a commercial Hargreaves apparatus (IITC, Woodland Hills, Calif.), or by determining mechanical hind paw withdrawal thresholds (MWT) using a digital paw pressure Randall-Selitto instrument (IITC, Woodland Hills, Calif.). On the day of the experiment, rats were transferred to a quiet room, acclimated for 1 hour and their baseline responses were measured. In pilot experiments, the intensity of the thermal stimulus was set to produce a baseline TWL of 7-8 sec. Baseline mechanical hind paw withdrawal thresholds varied between 60-70 grams of force. Immediately following baseline determination all compounds were administered subcutaneously in the following vehicles; Inhibitors of sEH were formulated in trans free oleate and administered in a total volume of 300 µL Rolipram, picrotoxin, flucanozole, miconazole and finasteride were all dissolved in a sterile saline solution containing 25% DMSO and administered in a volume of 50 μl. Caffeine was dissolved in saline and administered in a total volume of 300 μl. All agents were administered subcutaneously into the back. In groups treated with the sEHi, cytochrome P450 inhibitors, finasteride or picrotoxin animals were pretreated one hour before other compounds. In groups treated with the PDEi, immediately following PDEi administration animals were placed in acrylic chambers on a glass platform maintained at a temperature of 30±1° C. for TWL measurement. Three to five TWL measurements were taken at 1-2 min interstimulus intervals following treatments and these were averaged for each animal at each time point. For MWT measurement, 45 minutes following treatment, the probe of the Randall-Selitto paw pressure meter was applied to the dorsal surface of the hind paw. The instrument was set to the maximum holding (MH) mode and the readout that elicited a hind paw withdrawal was designated as the threshold. Three MWT measurements were taken at 1-2 min interstimulus intervals and these were averaged for each animal. Data are presented as percent change from each animal's baseline response. Open field activity was quantified using a Plexiglas chamber (40×40×30 cm, length×width×height) imprinted with a 10×10 cm grid. Animals were placed in the middle of the chamber and observed for two minutes. The number of crossings were recorded when both hind paws crossed into a neighboring cell.
A non-inflammatory model was used to test the hypothesis that elevated intracellular cAMP and EETs will act synergistically in producing antinociception. Intracellular cAMP levels were increased by administering increasing doses of two CNS permeable PDEi; rolipram, a PDE-4 selective inhibitor and caffeine, a non selective PDEi. […]

[3] = Brain, blood and plasma inhibitor levels, LC-ESI-MS/MS; details: 10 mg/kg TPAU, 40 mg/kg AUDA; unpublished results
rats [4] = assay: Mechanical hind paw withdrawal threshold (Randall-Selitto), non-inflammatory model; format: in vivo, rat
Experimental: as §1, with “For MWT measurement, 45 minutes following treatment, the probe of the Randall-Selitto paw pressure meter was applied to the dorsal surface of the hind paw.” left out, “Three MWT measurements were taken at 1-2 min interstimulus intervals and these were averaged for each animal. Data are presented as percent change from each animal's baseline response.” left out, “Animals were placed in the middle of the chamber and observed for two minutes.” left out, “cell. […]” for “cell.”

rats [5] = assay: Streptozocin induced diabetic neuropathy, Von Frey mechanical allodynia; format: in vivo, rat; details: Von Frey's test
Experimental: The study was approved by UC Davis Animal Care and Use Committee. Male Sprague-Dawley rats weighing 250-350 g were obtained from Charles River Inc. Two models of inflammatory pain and one model of diabetic neuropathic pain were used to test the effects of sEHI. The main inflammatory pain model used involved intraplantar LPS (10 μg/animal) administration as described previously (Inceoglu B et al., Life Sci 79:2311-2319 (2006)). Briefly, following baseline thermal withdrawal latency and mechanical withdrawal threshold determination LPS (in saline) was administered into one hind paw and nociceptive thresholds were monitored over time. The other inflammatory pain model involved intraplantar carrageenan (1% in saline, 50 μl) administration and was only used when sEHI was administered into the spinal cord. Intrathecal catheters were implanted according to Yaksh and Rudy (Yaksh T L and Rudy T A, Physiol Behav 17(6):1031-1036 (1976)). Following baseline nociceptive response measurements carrageenan was administered into one hind paw and responses were monitored over time and after intraspinal sEHI administration. […] In experiments in which EETs, sEHI and cAMP analogue was administered intraspinally animals were maintained under deep anesthesia and therefore nociceptive thresholds were not determined.

[6] = test system: C57BL/6 mice; sEH null mice; assay: Picrotoxin induced seizures; format: in vivo, mouse
C57BL/6 mice = assay: Pentobarbital induced loss of righting reflex; format: in vivo, mouse; details: pentobarbital 40 mg/kg i.p., TPAU 3 mg/kg, rolipram 1 mg/kg s.c.
Text: Loss of righting was quantified as previously described, with a slightly lower dose of pentobarbital (Pinna, et al. (2004) Proc Natl Acad Sci USA, 101(16), 6222-6225).
In rats, sEHi-PDEi combination led to significant increases in nociceptive thresholds. We asked if co-administration of sEHi-PDEi combination would also enhance GABA-related activity in mice. Loss of righting reflex in pentobarbital administered mice following sEHi and PDEi administration was quantified.

allopregnanolone = assay: Radioimmunoassay of allopregnanolone in spinal cord and brain; format: in vivo, rat; details: rats, increasing rolipram doses, TPAU 10 mg/kg s.c.
Experimental: Radioimmunoassays were conducted as previously described (Janis G, C. et al., Alcoholism: Clinical and Experimental Research 22:2055-2061 (1998)). Briefly, spinal cord and brain samples were weighed and suspended in 2.5 ml of 0.3N NaOH, homogenized with a sonic dismembrator, and extracted three times with 3 ml aliquots of 10% ethyl acetate in heptane (vol/vol). Extraction recovery was monitored by the addition of 2000 cpm of [^3H]allopregnanolone. The extracts were purified using solid phase silica columns (Burdick and Jackson, Muskegon, Mich.) and subsequently dried. Samples were reconstituted and assayed in duplicate by the addition of [^3H]allopregnanolone and anti-allopregnanolone antibody (1:2000; Custom synthesis, Reproductive Endocrine Unit, Massachusetts General Hospital). Total binding was determined in the absence of unlabeled allopregnanolone and nonspecific binding was determined in the absence of antibody. The antibody binding reaction is allowed to equilibrate for 2 hours and cold dextran-coated charcoal was used to separate bound from unbound steroid. Bound radioactivity was determined by liquid scintillation spectroscopy. Steroid levels in the samples were extrapolated from a concurrently run standard curve and corrected for their respective extraction efficiencies. The sensitivity of the assay was 0.63 ng/ml. The intraassay coefficient of variation was <5%.

rats [7] = assay: Open field / motor activity; format: in vivo, rat; details: rolipram 0.1 and TPAU 10 mg/kg
StARD1 mRNA [8] = assay: StARD1 expression after rolipram and TPAU, qRT-PCR; format: in vivo, rat; details: rats
Text: Briefly, RNA from whole spinal cord, brain and adrenal gland samples were extracted using a purelink Micro to Midi total RNA purification kit (Invitrogen, CA). The RNA samples were quantified by spectrophotometry and converted to cDNA using a high capacity cDNA reverse transcription kit from Applied Biosystems (CA, USA). Taq-man probe for StARD1 (Rn00580695_ml) was used according to manufacturer's instructions to quantify relative gene expression (Applied Biosystems CA, USA). Experiments were performed in triplicate with glyceraldehyde 3-phosphate dehydrogenase gene serving as the endogenous control. Mean fold expression values from corresponding vehicle treated animal tissues were used as calibrators.
These findings encouraged us to investigate the expression of StARD1 message as a marker of steroidogenic activity. […] Adrenal StARD1 from the same animals was also monitored as a marker of peripheral steroidogenesis.

[9] = test system: circulating testosterone and progesterone; assay: Circulating steroid hormone levels by RIA; format: in vivo, rat; details: rats
[10] = test system: plasma oxylipins (EETs, DHETs, PGE2); assay: Plasma oxylipin analysis in LPS treated rats; format: in vivo, rat
Text: Plasma was collected by cardiac puncture under deep anesthesia. Rats were anesthetized by isoflurane overdose and decapitated. Whole brains were immediately excised and flash frozen. […] Dorsal roots were excluded.

rats [11] = assay: Thermal withdrawal latency, intraplantar LPS inflammatory pain model and non-inflamed controls; format: in vivo, rat; details: for effect on AEPU mediated antihyperalgesia: LPS treated rats, AEPU 50 mg/kg topical; for thermal withdrawal latency in the absence of inflammation: control rats, i.pl. saline; for LPS elicited thermal hyperalgesia (thermal withdrawal latency): rats, i.pl. LPS 10 μg
[12] = one hour, increasing rolipram doses, TPAU 10 mg/kg

Nc1ncnc2c1nc(Br)n2[C@@H]1O[C@@H]2COP(=O)(O)O[C@H]2[C@H]1O [8-Br cAMP]
brain StARD1 expression (StARD1 mRNA [1]): Neither brain nor spinal StARD1 expression changed | spinal StARD1 expression (StARD1 mRNA [1]): without effect

O=C(O)CCCCCCCCCCCNC(=O)NC12CC3CC(CC(C3)C1)C2 [AUDA, 12-(3-Adamantan-1-yl-ureido)dodecanoic acid]
thermal withdrawal latency, sEHi alone (rats [2]; rats, s.c., over 4 hours, vs baseline): no significant differences | plasma inhibitor levels relative to rat sEH IC50 [3]: 200 fold | effect on caffeine's increase of mechanical withdrawal threshold (rats [4]; rats, AUDA 40 mg/kg): enhanced | mechanical allodynia elicited by streptozocin induced diabetic neuropathy (rats [5]): reduced

OC(Cn1cncn1)(Cn1cncn1)c1ccc(F)cc1F [Flucanozole]
effect on the dose-effect curve of rolipram (antinociception) (rats [2]; rats, s.c.): antagonized

COc1ccc(C2CNC(=O)C2)cc1OC1CCCC1 (centres unmarked) [Rolipram]
time to onset of picrotoxin induced seizures ([6]; C57BL/6 mice, picrotoxin 10 mg/kg s.c., TPAU 3 mg/kg, rolipram 1 mg/kg s.c.): no effect | onset of picrotoxin induced seizures in sEH null mice ([6]; sEH null mice, increasing doses): delayed in a dose dependent manner | ED50 (rats [2]; Rattus norvegicus, sc): 0.53 mg/kg | efficacy, increase over baseline in thermal withdrawal latency (rats [2]; rats, s.c.): 202% | duration of pentobarbital induced loss of righting response (C57BL/6 mice): no effect; also recorded: did not change | ED50 (rats [4]; Rattus norvegicus, sc, rats, rolipram dose, AUDA 40 mg/kg): 0.3 mg/kg | brain allopregnanolone levels (allopregnanolone): significantly increased allopregnanolone levels at one dose point only | spinal cord allopregnanolone levels (allopregnanolone): did not change | open field activity / motor function (rats [7]): depression of activity | decrease in adrenal gland StARD1 expression (StARD1 mRNA [8]): 30% | brain StARD1 expression (StARD1 mRNA [8]; [12]): no change | spinal cord StARD1 expression (StARD1 mRNA [8]; [12]): biphasic increase

CCC1(c2ccc(N)cc2)CCC(=O)NC1=O (centres unmarked) [aminoglutethimide]
circulating / plasma progesterone level [9]: significantly reduced | plasma EET/DHET ratio ([10]; LPS and AEPU-treated rats): did not change | antagonism of sEHI reduction of PGE2 ([10]; LPS+AEPU+AGL treated rats): did not antagonize | effect on AEPU mediated antihyperalgesia (rats [11]): blocked | thermal withdrawal latency in the absence of inflammation (rats [11]): failed to alter | LPS elicited thermal hyperalgesia (thermal withdrawal latency) (rats [11]): failed to alter

Cn1c(=O)c2c(ncn2C)n(C)c1=O [caffeine]
open field activity / motor function (rats [7]): did not cause depression of motor activity

CC(C)(C)NC(=O)[C@H]1CC[C@H]2[C@@H]3CC[C@H]4NC(=O)C=C[C@]4(C)[C@H]3CC[C@]12C [finasteride]
effect on the dose-effect curve of rolipram (antinociception) (rats [2]; rats, s.c.): antagonized | effect on AEPU mediated antihyperalgesia (rats [11]): blocked | thermal withdrawal latency in the absence of inflammation (rats [11]): failed to alter | LPS elicited thermal hyperalgesia (thermal withdrawal latency) (rats [11]): failed to alter

Clc1ccc(COC(Cn2ccnc2)c2ccc(Cl)cc2Cl)c(Cl)c1 (centres unmarked) [miconazole]
effect on the dose-effect curve of rolipram (antinociception) (rats [2]; rats, s.c.): failed to change

CC#C[C@]1(O)CC[C@H]2[C@@H]3CCC4=CC(=O)CCC4=C3[C@@H](c3ccc(N(C)C)cc3)C[C@@]21C [mifepristone]
effect on AEPU mediated antihyperalgesia (rats [11]): did not block

CC1(C)NC(=O)N(c2ccc([N+](=O)[O-])c(C(F)(F)F)c2)C1=O [nilutamide]
effect on AEPU mediated antihyperalgesia (rats [11]): did not block

CC(=O)S[C@@H]1CC2=CC(=O)CC[C@]2(C)[C@H]2CC[C@@]3(C)[C@@H](CC[C@@]34CCC(=O)O4)[C@H]12 [spironolactone]
effect on AEPU mediated antihyperalgesia (rats [11]): did not block

CC/C(=C(\c1ccccc1)c1ccc(OCCN(C)C)cc1)c1ccccc1 [tamoxifen]
effect on AEPU mediated antihyperalgesia (rats [11]): did not block

picrotoxin
effect on rolipram+AUDA antinociception, thermal withdrawal (rats [2]; picrotoxin 0.25 mg/kg): antagonized | baseline nociceptive responses, given alone (rats [2]; picrotoxin 0.25 mg/kg s.c.): did not change baseline responses | effect on rolipram+AUDA increase in mechanical withdrawal threshold (rats [4]; picrotoxin 0.25 mg/kg): antagonized
